Laboratory results as given in patent publication US20230174507A1, “IMIDAZOLE 3-OXIDE DERIVATIVE BASED ACSS2 INHIBITORS AND METHODS OF USE THEREOF” (METABOMED LTD., priority 2020, published 2023).

What was measured:
human ACSS2 protein = biological target: T1, human ACSS2 protein (Homo sapiens, UniProt Q9NR19); test: ACSS2 cell-free activity assay (pyrophosphatase-coupled, Biomol green); settings: 10 nM human ACSS2, 90 minutes at 37 C, absorbance at 620 nm; read-out: ACSS2 Biochemical IC50
T1 construct: purchased OriGene Technologies, Inc
T1 sequence (Q9NR19 whole entry): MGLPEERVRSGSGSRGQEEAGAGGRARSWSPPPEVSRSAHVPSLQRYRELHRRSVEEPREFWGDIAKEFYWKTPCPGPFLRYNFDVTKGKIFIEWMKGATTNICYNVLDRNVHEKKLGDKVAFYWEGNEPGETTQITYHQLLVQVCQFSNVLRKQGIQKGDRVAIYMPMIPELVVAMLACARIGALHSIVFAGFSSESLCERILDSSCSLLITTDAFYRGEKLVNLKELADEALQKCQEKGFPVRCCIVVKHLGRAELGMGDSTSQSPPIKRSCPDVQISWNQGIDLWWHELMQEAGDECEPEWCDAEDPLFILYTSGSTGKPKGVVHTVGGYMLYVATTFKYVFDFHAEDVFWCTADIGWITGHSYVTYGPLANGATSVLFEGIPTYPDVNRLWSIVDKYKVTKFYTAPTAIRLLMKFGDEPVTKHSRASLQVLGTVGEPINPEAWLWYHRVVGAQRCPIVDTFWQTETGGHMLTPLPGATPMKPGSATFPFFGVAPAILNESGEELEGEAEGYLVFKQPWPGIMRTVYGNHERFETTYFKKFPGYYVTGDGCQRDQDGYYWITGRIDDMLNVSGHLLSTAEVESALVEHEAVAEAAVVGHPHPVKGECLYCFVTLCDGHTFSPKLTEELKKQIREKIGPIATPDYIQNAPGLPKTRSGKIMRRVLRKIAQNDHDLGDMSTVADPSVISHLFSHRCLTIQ
Experimental: ACSS2 Cell-Free Activity Assay (Cell-Free IC50)
(§1) The assay is based on a coupling reaction with Pyrophosphatase: ACSS2 is converting ATP+CoA+Acetate=>AMP+pyrophosphate+Acetyl-CoA (Ac-CoA). Pyrophosphatase converts pyrophosphate, a product of the ACSS2 reaction, to phosphate which can be detected by measuring the absorbance at 620 nm after incubation with the Biomol green reagent (Enzo life Science, BML-AK111).
(§2) Cell Free IC50 Determination:
(§3) 10 nM of human ACSS2 protein (OriGene Technologies, Inc) was incubated for 90 minutes at 37 C with various compounds' concentrations in a reaction containing 50 mM Hepes pH 7.5, 10 mM DTT, 90 mM KCl, 0.006% Tween-20, 0.1 mg/ml BSA, 2 mM MgCl2, 10 μM CoA, 5 mM NaAc, 300 μM ATP and 0.5 U/ml Pyrophosphatase (Sigma). At the end of the reaction, Biomol Green was added for 30 minutes at RT and the activity was measured by reading the absorbance at 620 nm. IC50 values were calculated using non-linear regression curve fit with 0% and 100% constrains (CDD Vault, Collaborative Drug Discovery, Inc.).

human ACSS1 protein = biological target: T2, human ACSS1 protein (Homo sapiens, UniProt Q9NUB1); test: ACSS1 cell-free activity assay (pyrophosphatase-coupled, Biomol green); format: biochemical; settings: 5 nM human ACSS1, 30 minutes at room temperature, absorbance at 620 nm
T2 construct: purchased MyBioSource
T2 sequence (Q9NUB1 38-689): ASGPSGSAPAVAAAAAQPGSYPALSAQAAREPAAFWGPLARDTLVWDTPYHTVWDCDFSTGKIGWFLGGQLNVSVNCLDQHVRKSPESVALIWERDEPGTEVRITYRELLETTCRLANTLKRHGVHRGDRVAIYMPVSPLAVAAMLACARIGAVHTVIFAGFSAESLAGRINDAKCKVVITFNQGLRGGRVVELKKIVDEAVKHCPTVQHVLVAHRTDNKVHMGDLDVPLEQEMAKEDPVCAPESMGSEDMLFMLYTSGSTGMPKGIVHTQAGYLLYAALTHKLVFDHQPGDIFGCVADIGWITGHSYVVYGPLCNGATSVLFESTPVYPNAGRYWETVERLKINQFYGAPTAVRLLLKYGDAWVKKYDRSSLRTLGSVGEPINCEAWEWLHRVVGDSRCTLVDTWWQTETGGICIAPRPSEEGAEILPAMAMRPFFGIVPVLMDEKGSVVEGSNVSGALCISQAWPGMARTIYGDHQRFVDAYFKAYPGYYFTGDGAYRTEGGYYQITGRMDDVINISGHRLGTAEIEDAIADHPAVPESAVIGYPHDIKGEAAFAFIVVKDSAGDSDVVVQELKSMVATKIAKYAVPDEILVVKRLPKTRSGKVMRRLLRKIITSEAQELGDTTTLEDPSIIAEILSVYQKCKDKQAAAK
Experimental: ACSS1 Cell-Free Activity Assay (Cell-Free IC50)
as §1, with “ACSS1” for “ACSS2”
as §2
as §3, with “5 nM” for “10 nM”, “human ACSS1” for “human ACSS2”, “protein (MyBioSource)” for “protein (OriGene Technologies, Inc)”, “for 30” for “for 90”, “at room temperature” for “at 37 C”, “MgCl2, 15” for “MgCl2, 10”

SMILES | IC50 (human ACSS2 protein) [nM] | ACSS1 Biochemical IC50 (nM) (human ACSS1 protein)
COc1ccc(-c2[nH]c(C)c(C(=O)Nc3cccc(C(F)(F)C4(C)CC4)c3)[n+]2[O-])cc1-c1c(C)cccc1C [Compound 151, 4-((3-(difluoro(1-methylcyclopropyl)methyl)phenyl)carbamoyl)-2-(6-methoxy-2′,6′-dimethyl-[1,1′-biphenyl]-3-yl)-5-methyl-1H-imidazole 3-oxide] | > 30 | Inactive
CCC(F)(F)c1cccc(NC(=O)c2c(C)[nH]c(-c3ccc(OC)c(-c4c(C)cc(CCc5ccccc5)cc4C)c3)[n+]2[O-])c1 [Compound 154, 4-((3-(1,1-difluoropropyl)phenyl)carbamoyl)-2-(6-methoxy-2′,6′-dimethyl-4′-phenethyl-[1,1′-biphenyl]-3-yl)-5-methyl-1H-imidazole 3-oxide] | > 30 | Inactive
C/C=C\c1cc(C)c(-c2cc(-c3[nH]c(C)c(C(=O)Nc4cccc(C(F)(F)CC)c4)[n+]3[O-])ccc2OC)c(C)c1 [Compound 160, (Z)-4-((3-(1,1-difluoropropyl)phenyl)carbamoyl)-2-(6-methoxy-2′,6′-dimethyl-4′-(prop-1-en-1-yl)-[1,1′-biphenyl]-3-yl)-5-methyl-1H-imidazole 3-oxide] | 1 to 30 | Inactive
CCCCc1cc(-c2c(C)cccc2C)cc(-c2[nH]c(C)c(C(=O)Nc3cccc(C(F)(F)C4CC4)c3)[n+]2[O-])c1 [Compound 161, 2-(5-butyl-2′,6′-dimethyl-[1,1′-biphenyl]-3-yl)-4-((3-(cyclopropyldifluoromethyl)phenyl)carbamoyl)-5-methyl-1H-imidazole 3-oxide] | < 1 | Inactive
CCC(F)(F)c1cccc(NC(=O)c2c(C)[nH]c(-c3ccc(OC)c(C4CCNCC4)c3)[n+]2[O-])c1 [Compound 162, 4-((3-(1,1-difluoropropyl)phenyl)carbamoyl)-2-(4-methoxy-3-(piperidin-4-yl)phenyl)-5-methyl-1H-imidazole 3-oxide] | < 1 | Inactive

The remaining lines, values ahead:

IC50 (human ACSS2 protein) [nM] | ACSS1 Biochemical IC50 (nM) (human ACSS1 protein) | SMILES
1 to 30 | Inactive | CCC(F)(F)c1cccc(NC(=O)c2c(C)[nH]c(-c3ccc(OC)c(-c4c(C)cc(C)cc4C)c3)[n+]2[O-])c1 [Compound 152, 4-((3-(1,1-difluoropropyl)phenyl)carbamoyl)-2-(6-methoxy-2′,4′,6′-trimethyl-[1,1′-biphenyl]-3-yl)-5-methyl-1H-imidazole 3-oxide]
> 30 | Inactive | COc1ccc(-c2[nH]c(C)c(C(=O)Nc3cccc(C(=O)N4CCNCC4)c3)[n+]2[O-])cc1-c1c(C)cccc1C [Compound 153, 2-(6-methoxy-2′,6′-dimethyl-[1,1′-biphenyl]-3-yl)-5-methyl-4-((3-(piperazine-1-carbonyl)phenyl)carbamoyl)-1H-imidazole 3-oxide]
1 to 30 | Inactive | CC#Cc1cc(C)c(-c2cc(-c3[nH]c(C)c(C(=O)Nc4cccc(C(F)(F)CC)c4)[n+]3[O-])ccc2OC)c(C)c1 [Compound 156, 4-((3-(1,1-difluoropropyl)phenyl)carbamoyl)-2-(6-methoxy-2′,6′-dimethyl-4′-(prop-1-yn-1-yl)-[1,1′-biphenyl]-3-yl)-5-methyl-1H-imidazole 3-oxide]
1 to 30 | Inactive | C/C=C/c1cc(C)c(-c2cc(-c3[nH]c(C)c(C(=O)Nc4cccc(C(F)(F)CC)c4)[n+]3[O-])ccc2OC)c(C)c1 [Compound 159, (E)-4-((3-(1,1-difluoropropyl)phenyl)carbamoyl)-2-(6-methoxy-2′,6′-dimethyl-4′-(prop-1-en-1-yl)-[1,1′-biphenyl]-3-yl)-5-methyl-1H-imidazole 3-oxide]
> 30 | Inactive | COc1ccc(-c2[nH]c(C)c(C(=O)Nc3cccc(C(=O)N4CCN(C)CC4)c3)[n+]2[O-])cc1-c1c(C)cccc1C [Compound 163, 2-[3-(2,6-dimethylphenyl)-4-methoxy-phenyl]-5-methyl-N-[3-(4-methylpiperazine-1-carbonyl)phenyl]-3-oxido-1H-imidazol-3-ium-4-carboxamide]
